Test results reported in patent publication US4327097A, “Novel penicillins” (Toyama Chemical Co., Ltd., priority 1974, dated 1982).
Converted amounts (≈) assume the structure as drawn.

Key:
Proteus morganii = experiment: MIC against clinical isolates; format: cell-based; details: Table 5-6, clinical isolate; unit assumed
[1] = test system: β-lactamase, Pseudomonas aeruginosa GN 238; experiment: Resistant activity against β-lactamase, iodometric assay; format: biochemical; details: β-lactamase from Pseudomonas aeruginosa GN 238; Potassium Penicillin G = 100
Outline: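 Crude β-lactamase was the sonicated-cell supernatant from P. aeruginosa GN 238, grown 6 h at 37 °C and washed in 0.1 M phosphate pH 7.0. Compound stability to the enzyme measured iodometrically; values are relative activity with potassium penicillin G set at 100.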

Klebsiella pneumoniae [2] = experiment: MIC against clinical isolates; format: cell-based; details: Table 5-4, clinical isolate; unit assumed
Pseudomonas aeruginosa = experiment: MIC against clinical isolates; format: cell-based; details: unit assumed; for MIC Pseudomonas neruginosa S-1 / MIC Pseudomonas neruginosa S-2 / MIC Pseudomonas neruginosa S-3 / MIC Pseudomonas neruginosa S-4: Table 5-4, clinical isolate
Salmonella typhi-murium = experiment: MIC against clinical isolates; format: cell-based; details: Table 5-5, clinical isolate; unit assumed
Proteus vulgaris 3027 = experiment: MIC, plate method, standard strains; format: cell-based; details: Table 3, standard strain; unit assumed
Outline: (§1)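 Plates of Heart infusion agar (pH 7.4) containing compound dilutions; 10^4-cell inoculum, from 10^6 cells/ml; lowest concentration preventing growth reported.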

Klebsiella pneumoniae [3] = experiment: MIC, plate method, standard strains; format: cell-based; details: Table 3, standard strain; unit assumed
Outline: as §1

[4] = test system: Staphylococcus aureus 209p; experiment: MIC, plate method, standard strains; format: cell-based; details: Table 3, standard strain, Heart infusion agar pH 7.4; unit assumed
Outline: as §1

[5] = test system: Pseudomonas aeruginosa I.F.O.; experiment: MIC, plate method, standard strains; format: cell-based; details: Table 3, standard strain; unit assumed
Outline: as §1

Escherichia coli NIHJ = experiment: MIC, plate method, standard strains; format: cell-based; details: Table 3, standard strain; unit assumed
Outline: as §1

Escherichia coli = experiment: MIC against clinical isolates; format: cell-based; details: Table 5-2, clinical isolate; unit assumed
Proteus vulgaris = experiment: MIC against clinical isolates; format: cell-based; details: Table 5-6, clinical isolate; unit assumed
Proteus mirabilis = experiment: MIC against clinical isolates; format: cell-based; details: Table 5-6, clinical isolate; unit assumed
Staphylococcus aureus = experiment: MIC against clinical isolates; format: cell-based; details: Table 5-1, clinical isolate; unit assumed
Shigella sonnei = experiment: MIC against clinical isolates; format: cell-based; details: Table 5-5, clinical isolate; unit assumed
Experimental: (§2) The minimum inhibitory concentration (MIC) was determined by the plate method disclosed in "Chemotherapy" (Japan), Vol. 16, (1968), pages 98-99. The culture medium used was a Heart infusion agar (pH 7.4). The number of the cells per plate used in the inoculum was 10^4 (10^6 cells/ml).
(§3) MIC was determined in the same manner as in the preceding paragraph (1).

Shigella flexneri = experiment: MIC against clinical isolates; format: cell-based; details: Table 5-5, clinical isolate; unit assumed
Experimental: as §2, §3

Proteus rettgeri = experiment: MIC against clinical isolates; format: cell-based; details: Table 5-6, clinical isolate; unit assumed

`CCCCCCN1CCN(C(=O)NC(C(=O)NC2C(=O)N3C2SC(C)(C)C3C(=O)O)c2ccccc2)C(=O)C1=O` (single isomer, unassigned) [Compound 46] was tested, and the MIC Proteus morganii (Proteus morganii) was less than 0.4 µg/mL, the “Relative activity (%), resistant activity against β-lactamase” value [1] was 12% and the MIC Klebsiella pneumoniae GN 3850 (Klebsiella pneumoniae [2]) was 1.57 µg/mL (≈ 2.74 µM). The MIC Klebsiella pneumoniae GN 4081 (Klebsiella pneumoniae [2]) was 12.5 µg/mL (≈ 21.8 µM), the MIC Klebsiella pneumoniae GN 4117 (Klebsiella pneumoniae [2]) was 12.5 µg/mL (≈ 21.8 µM) and the MIC Pseudomonas aeruginosa GN (Pseudomonas aeruginosa; Table 5-3, clinical isolate, strain number not given) was 12.5 µg/mL (≈ 21.8 µM). The MIC Pseudomonas aeruginosa GN 82 (Pseudomonas aeruginosa; Table 5-3, clinical isolate) was 6.25 µg/mL (≈ 10.9 µM), the MIC Pseudomonas aeruginosa GN 163 (Pseudomonas aeruginosa; Table 5-3, clinical isolate) was 6.25 µg/mL (≈ 10.9 µM) and the MIC Pseudomonas aeruginosa GN 221 (Pseudomonas aeruginosa; Table 5-3, clinical isolate) was 12.5 µg/mL (≈ 21.8 µM). For the same molecule, the MIC Pseudomonas aeruginosa GN 1035 (Pseudomonas aeruginosa; Table 5-3, clinical isolate) was 50 µg/mL (≈ 87.2 µM), the MIC Pseudomonas aeruginosa GN 1091 (Pseudomonas aeruginosa; Table 5-3, clinical isolate) was 12.5 µg/mL (≈ 21.8 µM) and the MIC Pseudomonas aeruginosa GN 2565 (Pseudomonas aeruginosa; Table 5-3, clinical isolate) was 12.5 µg/mL (≈ 21.8 µM). The MIC Pseudomonas aeruginosa GN 2987 (Pseudomonas aeruginosa; Table 5-3, clinical isolate) was 6.25 µg/mL (≈ 10.9 µM), the MIC Pseudomonas neruginosa S-1 (Pseudomonas aeruginosa) was 50 µg/mL (≈ 87.2 µM) and the MIC Pseudomonas neruginosa S-2 (Pseudomonas aeruginosa) was 50 µg/mL (≈ 87.2 µM). The MIC Pseudomonas neruginosa S-3 (Pseudomonas aeruginosa) was 50 µg/mL (≈ 87.2 µM), the MIC Pseudomonas neruginosa S-4 (Pseudomonas aeruginosa) was 50 µg/mL (≈ 87.2 µM) and the MIC Salmonella typhi-murium SL 858 (Salmonella typhi-murium) was less than 0.4 µg/mL. The MIC Salmonella typhi-murium SL 2136 (Salmonella typhi-murium) was 50 µg/mL (≈ 87.2 µM), the MIC Proteus vulgaris 3027 (Proteus vulgaris 3027) was 0.4 µg/mL (≈ 0.697 µM) and the MIC Klebsiella pneumoniae (Klebsiella pneumoniae [3]) was 0.4 µg/mL (≈ 0.697 µM). It also gave an MIC Staphylococcus aureus 209p [4] of 0.2 µg/mL (≈ 0.349 µM), an MIC Pseudomonas aeruginosa I.F.C [5] of 6.25 µg/mL (≈ 10.9 µM) and an MIC Esche--richin coil NIHJ (Escherichia coli NIHJ) of less than 0.1 µg/mL. The MIC Escherichia coli GN 3435 (Escherichia coli) was less than 0.4 µg/mL, the MIC Escherichia coli GN 3465 (Escherichia coli) was 6.25 µg/mL (≈ 10.9 µM) and the MIC Escherichia coli GN 3611 (Escherichia coli) was greater than 200 µg/mL. For the same molecule, the MIC Escherichia coli K-3 (Escherichia coli) was 50 µg/mL (≈ 87.2 µM), the MIC Escherichia coli K-4 (Escherichia coli) was less than 0.4 µg/mL and the MIC Proteus vulgaris (Proteus vulgaris) was less than 0.4 µg/mL. For the same molecule, the MIC Proteus mirabilis (Proteus mirabilis) was less than 0.4 µg/mL, the MIC Staphylococcus aureus F-1 (Staphylococcus aureus) was 6.25 µg/mL (≈ 10.9 µM) and the MIC Staphylococcus aureus F-2 (Staphylococcus aureus) was 1.57 µg/mL (≈ 2.74 µM). The MIC Staphylococcus aureus F-4 (Staphylococcus aureus) was 6.25 µg/mL (≈ 10.9 µM), the MIC Staphylococcus aureus F-5 (Staphylococcus aureus) was greater than 200 µg/mL and the MIC Staphylococcus aureus MS 8588 (Staphylococcus aureus) was 1.57 µg/mL (≈ 2.74 µM). For the same molecule, the MIC Staphylococcus aureus MS 8619 (Staphylococcus aureus) was less than 0.4 µg/mL, the MIC Staphylococcus aureus MS 8684 (Staphylococcus aureus) was 1.57 µg/mL (≈ 2.74 µM) and the MIC Staphylococcus aureus MS 8713 (Staphylococcus aureus) was 6.25 µg/mL (≈ 10.9 µM). The MIC Shigella sonnei JS 11232 (Shigella sonnei) was 12.5 µg/mL (≈ 21.8 µM), the MIC Shigella sonnei JS 11755 (Shigella sonnei) was 0.79 µg/mL (≈ 1.38 µM) and the MIC Shigella flexneri JS 11215 (Shigella flexneri) was 6.25 µg/mL (≈ 10.9 µM). For the same molecule, the MIC Shigella flexneri JS 11839 (Shigella flexneri) was 0.79 µg/mL (≈ 1.38 µM).

In the case of `CCCCCCCCN1CCN(C(=O)N[C@@H](C(=O)N[C@@H]2C(=O)N3[C@@H]2SC(C)(C)[C@@H]3C(=O)O)c2ccccc2)C(=O)C1` [Compound 16], the MIC Klebsiella pneumoniae GN 3850 (Klebsiella pneumoniae [2]) is reported as 3.13 µg/mL (≈ 5.33 µM), the MIC Pseudomonas aeruginosa GN 82 (Pseudomonas aeruginosa; Table 5-3, clinical isolate) is reported as 6.25 µg/mL (≈ 10.6 µM) and the MIC Pseudomonas aeruginosa GN 2987 (Pseudomonas aeruginosa; Table 5-3, clinical isolate) is reported as 3.13 µg/mL (≈ 5.33 µM). It also gave an MIC Proteus vulgaris 3027 (Proteus vulgaris 3027) of less than 1.57 µg/mL, an MIC Klebsiella pneumoniae (Klebsiella pneumoniae [3]) of 1.57 µg/mL (≈ 2.67 µM) and an MIC Staphylococcus aureus 209p [4] of less than 1.57 µg/mL. It also gave an MIC Esche--richin coil NIHJ (Escherichia coli NIHJ) of less than 1.57 µg/mL, an MIC Escherichia coli GN 3435 (Escherichia coli) of 1.57 µg/mL (≈ 2.67 µM) and an MIC Escherichia coli GN 3452 (Escherichia coli) of 1.57 µg/mL (≈ 2.67 µM). For the same molecule, the MIC Escherichia coli GN 3481 (Escherichia coli) was 3.13 µg/mL (≈ 5.33 µM), the MIC Escherichia coli K-1 (Escherichia coli) was 1.57 µg/mL (≈ 2.67 µM) and the MIC Escherichia coli K-2 (Escherichia coli) was 3.13 µg/mL (≈ 5.33 µM). It also gave an MIC Escherichia coli K-4 (Escherichia coli) of 3.13 µg/mL (≈ 5.33 µM), an MIC Staphylococcus aureus F-1 (Staphylococcus aureus) of 6.25 µg/mL (≈ 10.6 µM) and an MIC Staphylococcus aureus F-4 (Staphylococcus aureus) of 6.25 µg/mL (≈ 10.6 µM). For the same molecule, the MIC Staphylococcus aureus MS 8588 (Staphylococcus aureus) was 3.13 µg/mL (≈ 5.33 µM), the MIC Staphylococcus aureus MS 8596 (Staphylococcus aureus) was 3.13 µg/mL (≈ 5.33 µM) and the MIC Staphylococcus aureus MS 8684 (Staphylococcus aureus) was 3.13 µg/mL (≈ 5.33 µM). The MIC Staphylococcus aureus MS 8713 (Staphylococcus aureus) was 3.13 µg/mL (≈ 5.33 µM), the MIC Shigella sonnei JS 11232 (Shigella sonnei) was 6.25 µg/mL (≈ 10.6 µM) and the MIC Shigella sonnei JS 11755 (Shigella sonnei) was 1.57 µg/mL (≈ 2.67 µM). The MIC Shigella flexneri JS 11215 (Shigella flexneri) was 6.25 µg/mL (≈ 10.6 µM), the MIC Shigella flexneri JS 11839 (Shigella flexneri) was 0.79 µg/mL (≈ 1.34 µM) and the MIC Proteus rettgeri (Proteus rettgeri) was 6.25 µg/mL (≈ 10.6 µM).

`CCCCCCCCN1CCN(C(=O)NC(C(=O)NC2C(=O)N3C2SC(C)(C)C3C(=O)O)c2ccccc2)C(=O)C1=O` (single isomer, unassigned) [Compound No. 47] was tested, and the MIC Proteus morganii (Proteus morganii) was less than 0.4 µg/mL, the “Relative activity (%), resistant activity against β-lactamase” value [1] was 1% and the MIC Klebsiella pneumoniae GN 917 (Klebsiella pneumoniae [2]) was 1.57 µg/mL (≈ 2.61 µM). For the same molecule, the MIC Klebsiella pneumoniae GN 3850 (Klebsiella pneumoniae [2]) was 3.13 µg/mL (≈ 5.2 µM), the MIC Pseudomonas aeruginosa GN 376 (Pseudomonas aeruginosa; Table 5-3, clinical isolate) was 50 µg/mL (≈ 83.1 µM) and the MIC Pseudomonas aeruginosa GN 383 (Pseudomonas aeruginosa; Table 5-3, clinical isolate) was 50 µg/mL (≈ 83.1 µM). For the same molecule, the MIC Pseudomonas neruginosa S-1 (Pseudomonas aeruginosa) was 50 µg/mL (≈ 83.1 µM), the MIC Pseudomonas neruginosa S-2 (Pseudomonas aeruginosa) was 50 µg/mL (≈ 83.1 µM) and the MIC Pseudomonas neruginosa S-3 (Pseudomonas aeruginosa) was 50 µg/mL (≈ 83.1 µM). The MIC Pseudomonas neruginosa S-4 (Pseudomonas aeruginosa) was 50 µg/mL (≈ 83.1 µM), the MIC Salmonella typhi-murium SL 858 (Salmonella typhi-murium) was less than 0.4 µg/mL and the MIC Salmonella typhi-murium SL 2136 (Salmonella typhi-murium) was 50 µg/mL (≈ 83.1 µM). The MIC Proteus vulgaris 3027 (Proteus vulgaris 3027) was less than 1.57 µg/mL, the MIC Klebsiella pneumoniae (Klebsiella pneumoniae [3]) was less than 1.57 µg/mL and the MIC Staphylococcus aureus 209p [4] was less than 1.57 µg/mL. For the same molecule, the MIC Pseudomonas aeruginosa I.F.C [5] was 6.25 µg/mL (≈ 10.4 µM), the MIC Esche--richin coil NIHJ (Escherichia coli NIHJ) was less than 1.57 µg/mL and the MIC Escherichia coli GN 3452 (Escherichia coli) was 1.57 µg/mL (≈ 2.61 µM). The MIC Escherichia coli GN 3465 (Escherichia coli) was 6.25 µg/mL (≈ 10.4 µM), the MIC Escherichia coli GN 3481 (Escherichia coli) was 1.57 µg/mL (≈ 2.61 µM) and the MIC Escherichia coli GN 3611 (Escherichia coli) was greater than 200 µg/mL. For the same molecule, the MIC Escherichia coli K-1 (Escherichia coli) was 1.57 µg/mL (≈ 2.61 µM), the MIC Escherichia coli K-2 (Escherichia coli) was 1.57 µg/mL (≈ 2.61 µM) and the MIC Escherichia coli K-3 (Escherichia coli) was 100 µg/mL (≈ 166 µM). It also gave an MIC Proteus vulgaris (Proteus vulgaris) of less than 0.4 µg/mL, an MIC Proteus mirabilis (Proteus mirabilis) of less than 0.4 µg/mL and an MIC Staphylococcus aureus F-1 (Staphylococcus aureus) of 6.25 µg/mL (≈ 10.4 µM). For the same molecule, the MIC Staphylococcus aureus F-2 (Staphylococcus aureus) was 1.57 µg/mL (≈ 2.61 µM), the MIC Staphylococcus aureus F-3 (Staphylococcus aureus) was 1.57 µg/mL (≈ 2.61 µM) and the MIC Staphylococcus aureus F-5 (Staphylococcus aureus) was greater than 200 µg/mL. It also gave an MIC Staphylococcus aureus MS 8588 (Staphylococcus aureus) of 3.13 µg/mL (≈ 5.2 µM), an MIC Staphylococcus aureus MS 8596 (Staphylococcus aureus) of 3.13 µg/mL (≈ 5.2 µM) and an MIC Staphylococcus aureus MS 8619 (Staphylococcus aureus) of less than 0.4 µg/mL. It also gave an MIC Staphylococcus aureus MS 8684 (Staphylococcus aureus) of 3.13 µg/mL (≈ 5.2 µM), an MIC Staphylococcus aureus MS 8713 (Staphylococcus aureus) of 6.25 µg/mL (≈ 10.4 µM) and an MIC Shigella sonnei JS 11232 (Shigella sonnei) of 6.25 µg/mL (≈ 10.4 µM). For the same molecule, the MIC Shigella sonnei JS 11755 (Shigella sonnei) was 0.79 µg/mL (≈ 1.31 µM), the MIC Shigella flexneri JS 11215 (Shigella flexneri) was 6.25 µg/mL (≈ 10.4 µM) and the MIC Shigella flexneri JS 11839 (Shigella flexneri) was 1.57 µg/mL (≈ 2.61 µM).
